Here are results for seven molecules from article PMC7039932, “Development of Relaxin-3 Agonists and Antagonists Based on Grafted Disulfide-Stabilized Scaffolds” (Frontiers in Chemistry, 2020).

Where a SMILES comes first, the peptide text is derived from it. Bridges are numbered along the chain shown (N, C = ends). Where no end group is shown, it is not given here.

One data set in a line: In vitro serum stability. Type of data set: in vitro ADME, human. As to conditions: for half-life at 2.5 µg/mL: human male pooled serum, 570 μl spiked with 30 μl peptide stock (0.05 μg/μl in H2O), quenched with 0.1 M ammonium acetate pH 3, SPE, LC-MS MRM, one phase decay, at least three replicates, read-out: Half-life in serum (T1/2) (converted). As to the method:
The in vitro serum stability was determined by peptide spiking, as previously described (Hossain et al., [2015]). Briefly, 570 μl human male pooled serum was spiked with 30 μl peptide stock solution (0.05 μg/μl in H2O). 100 μl samples were taken out at different time points and quenched with 900 μl ammonium acetate (0.1 M, pH 3). Samples were left on ice for 30 min before being extracted using solid phase extraction cartridges (Oasis HLB 3cc, Waters). Eluted samples were then lyophilized and reconstituted in 1% formic acid. The amount of intact peptide is reported relative to the amount of peptide available at timepoint 0 hr. Quantification was carried out using multiple reaction monitoring on a triple-quad LC-MS (API2000, AB Sciex) and the data analyzed using one phase decay in Prism 7.

Data set [1] concerns the target T1, RXFP3 (Homo sapiens, UniProt Q9NSD7).
T1 construct: expressed in transfected cells; host or cells: CHO-K1 cells stably expressing RXFP3
T1 sequence (Q9NSD7 1-469): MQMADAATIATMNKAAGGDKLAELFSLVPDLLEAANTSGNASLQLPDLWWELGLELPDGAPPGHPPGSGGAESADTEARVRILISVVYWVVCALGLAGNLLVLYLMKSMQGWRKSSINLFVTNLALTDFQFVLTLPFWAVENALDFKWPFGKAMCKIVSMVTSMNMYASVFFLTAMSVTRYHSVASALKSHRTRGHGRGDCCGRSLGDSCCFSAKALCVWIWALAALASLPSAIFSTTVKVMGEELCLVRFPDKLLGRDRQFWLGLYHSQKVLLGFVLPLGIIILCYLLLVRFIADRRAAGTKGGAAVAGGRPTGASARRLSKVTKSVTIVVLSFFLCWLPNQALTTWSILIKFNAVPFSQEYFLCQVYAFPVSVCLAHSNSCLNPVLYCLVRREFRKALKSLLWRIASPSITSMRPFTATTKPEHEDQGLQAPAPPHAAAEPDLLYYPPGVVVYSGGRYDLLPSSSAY
As to the kind of experiment: Inhibition of forskolin-induced cAMP accumulation, pCRE-β-galactosidase reporter, CHO-K1 cells stably expressing RXFP3. To be noted: CHO-K1-RXFP3 cells with pCRE-β-galactosidase reporter; 5 μM forskolin; mean ± SEM, number in parentheses = independent experiments in triplicate. Type of data set: cell-based. As to the method:
The affinity and activity of the grafted peptides were determined as previously described (Haugaard-Kedström et al., [2015]). Briefly, for competition binding studies CHO-K1 cells stably expressing RXFP3 were incubated with 5 nM Eu-DTPA-R3 B1-22R and increasing concentrations of peptide analogs. Unlabeled R3 B1-22R was used as reference compound. The europium was detected by the addition of enhancement solution and fluorescence recorded using an excitation of 340 nm and emission reading at 614 nm. For agonists the ability of analogs to inhibit cAMP accumulation were tested in CHO-K1 cells stably expressing RXFP3 transfected with a pCRE-β-galactosidase reporter plasmid. Cells were stimulated with 5 μM forskolin and incubated with increasing concentrations of relaxin-3 analogs as previously described (Shabanpoor et al., [2012]). […] Data are expressed as mean ± SEM and analyzed using Prism 8 (GraphPad).
The binding affinity of the grafted peptides were determined using CHO cells stably expressing RXFP3 by measuring increasing concentrations of the grafted peptides' ability to compete for the binding site with europium labeled R3 B1-22R (Haugaard-Kedström et al., [2015]). Activation was measured by assessing the ability of the analogs to inhibit cAMP accumulation induced by forskolin in a reporter assay, as RXFP3 couples to an inhibitory G-protein.

Data set [2] concerns the target T2, RXFP3 (Homo sapiens, UniProt Q9NSD7).
T2 chain: T1 sequence (Q9NSD7 1-469)
Briefly: competition binding with Eu-R3 B1-22R on CHO-K1 cells.

The Ki is a dissociation constant, usually derived from enzyme kinetics or from competition with a known ligand. Lower therefore signals a stronger hold on the target.

For `CC[C@H](C)[C@H](NC(=O)[C@H](Cc1ccccc1)NC(=O)[C@H](CCC(=O)O)NC(=O)[C@H](CCCNC(=N)N)NC(=O)CNC(=O)[C@H](CS)NC(=O)[C@H](CC(C)C)NC(=O)[C@H](CCCNC(=N)N)NC(=O)[C@@H](NC(=O)CNC(=O)[C@H](Cc1ccc(O)cc1)NC(=O)[C@@H]1CCCN1C(=O)[C@H](C)NC(=O)[C@H](C)NC(=O)[C@@H](N)CCCNC(=N)N)C(C)C)C(=O)N[C@@H](CCCNC(=N)N)C(=O)N[C@@H](C)C(=O)N[C@H](C(=O)N[C@H](C(=O)N[C@@H](Cc1ccccc1)C(=O)N[C@H](C(=O)N[C@@H](CS)C(=O)NCC(=O)NCC(=O)N[C@@H](CO)C(=O)N[C@@H](CCCNC(=N)N)C(=O)N[C@@H](Cc1c[nH]c2ccccc12)C(=O)O)[C@@H](C)O)[C@@H](C)CC)C(C)C` [Analog 2, reference compound], the half-life at 2.5 µg/mL in the data set “In vitro serum stability” was 0.0517 h.

Take `CC[C@H](C)[C@@H]1NC(=O)[C@H](C)NC(=O)[C@@H]2CSSC[C@H](N)C(=O)N[C@@H](CC(N)=O)C(=O)N[C@@H](CSSC[C@@H](C(=O)N[C@H](C(=O)N[C@H](C(=O)N[C@@H](Cc3ccccc3)C(=O)N[C@H](C(=O)N[C@@H](CO)C(=O)NCC(=O)NCC(=O)N[C@@H](CO)C(=O)N[C@@H](CCCNC(=N)N)C(=O)N[C@@H](Cc3c[nH]c4ccccc34)C(=O)O)[C@@H](C)O)[C@@H](C)CC)C(C)C)NC(=O)[C@H](CCCNC(=N)N)NC1=O)C(=O)N[C@@H](CCCCN)C(=O)N[C@@H](C)C(=O)N1CCC[C@H]1C(=O)N[C@@H](CCC(=O)O)C(=O)N[C@@H]([C@@H](C)O)C(=O)N[C@@H](C)C(=O)N[C@@H](CCCNC(=N)N)C(=O)N2` [Analog 3] (H-CNCKAPETARCAIRCVIFTSGGSRW-OH; disulfide 1-11, 3-15): the half-life at 2.5 µg/mL in “In vitro serum stability” is 12.8 h. Besides, the “Fold improvement in serum stability versus linear counterpart” value in the data set “In vitro serum stability” (human serum T1/2 of grafted peptide relative to linear R3 B1-27 or R3 B1-22R) worked out at 250 fold.

With `CC[C@H](C)[C@@H]1NC(=O)[C@H](C)NC(=O)[C@@H]2CSSC[C@H](N)C(=O)N[C@@H](CC(N)=O)C(=O)N[C@@H](CSSC[C@@H](C(=O)N[C@H](C(=O)N[C@H](C(=O)N[C@@H](Cc3ccccc3)C(=O)N[C@H](C(=O)N[C@@H](CO)C(=O)N[C@@H](CCCNC(=N)N)C(N)=O)[C@@H](C)O)[C@@H](C)CC)C(C)C)NC(=O)[C@H](CCCNC(=N)N)NC1=O)C(=O)N[C@@H](CCCCN)C(=O)N[C@@H](C)C(=O)N1CCC[C@H]1C(=O)N[C@@H](CCC(=O)O)C(=O)N[C@@H]([C@@H](C)O)C(=O)N[C@@H](C)C(=O)N[C@@H](CCCNC(=N)N)C(=O)N2` [Analog 9] (H-CNCKAPETARCAIRCVIFTSR-NH2; disulfide 1-11, 3-15), the “cAMP activity pEC50 ± SEM” value at RXFP3 [1] is on record as “No activity”. The half-life at 2.5 µg/mL in the data set “In vitro serum stability” was 6.6 h.

On to “RAAPYGVRLSGREFIRAVIFTSR-NH2 [Analog 8, reference compound]”, for which the half-life at 2.5 µg/mL in “In vitro serum stability” was 0.0667 h.

For the molecule RAAPYGVRLSGREFIRAVIFTSR-NH2 [Analog 8], at RXFP3 [1], the “cAMP activity pEC50 ± SEM” value was “No activity”.

B1: relaxin-3 B-chain (R3 B1-27, analog 2) B-chain 1-27 (peptide)
chain: MARYMLLLLLAVWVLTGELWPGAEARA
Take B1: the Ki with RXFP3 [2] amounted to 1230 nM.

B2: relaxin-3 (R3 acid, analog 1) (protein)
chain 1: RAAPYGVRLCGREFIRAVIFTCGGSRW
chain 2: DVLAGLSSSCCKWGCSKSEISSLC
With B2, affinity in the data set with RXFP3 [2] was put at a Ki of 20.4 nM.
